Assay results taken from patent US20140303105A1, “Primycin and components thereof for use in the treatment or prevention of infections caused by specific pathogens” (PANNONPHARMA GYÓGYSZERGYÁRTÓ ZRT., priority 2011, published 2014).
Converted amounts (≈) assume the structure as drawn. Read-outs that look alike come from different tables or passages of the source.

What was measured:
[1] = test system: Bacillus subtilis ATCC 6633; details: cited from earlier work
[2] = test system: Streptococcus mitis; details: by Bryskier; cited from earlier work
[3] = test system: Staphylococcus epidermidis; details: by Bryskier; cited from earlier work
[4] = test system: S. aureus; details: by Bryskier; cited from earlier work
[5] = test system: B. subtilis ATCC 6633; details: by Bryskier; cited from earlier work
[6] = test system: Enterobacter cloacae B 520; details: cited from earlier work
[7] = test system: Staphylococcus saprophyticus 8454; details: cited from earlier work
[8] = test system: Micrococcus spp.; details: cited from earlier work
[9] = test system: Staphylococcus capitis; details: cited from earlier work
[10] = test system: Streptococcus mitis 5728; details: cited from earlier work
[11] = test system: Staphylococcus epidermidis 7586; details: cited from earlier work
[12] = test system: Staphylococcus hominis 7835; details: cited from earlier work
[13] = test system: Propionibacterium acnes; details: by Bryskier; cited from earlier work
[14] = test system: Escherichia coli; details: by Bryskier; cited from earlier work
[15] = test system: Coryneform(s); details: by Bryskier; cited from earlier work
[16] = test system: Staphylococcus aureus 7503; details: cited from earlier work
[17] = test system: Enterobacter cloacae; details: by Bryskier; cited from earlier work
[18] = test system: S. aureus ATCC 25923; details: by Bryskier; cited from earlier work
[19] = test system: Escherichia coli B 1218; details: cited from earlier work
[20] = test system: Staphylococcus aureus ATCC 25923; details: cited from earlier work
[21] = test system: Diphteroides 8264; details: cited from earlier work
[22] = test system: S. pyogenes; details: by Bryskier; cited from earlier work
[23] = test system: Micrococcus; details: by Bryskier; cited from earlier work
[24] = test system: Propionibacterium acnes; details: cited from earlier work
[25] = test system: Streptococcus simulans 7866; details: cited from earlier work
[26] = test system: Serotype β Streptococcus 8252; details: cited from earlier work
[27] = test system: Enterococcus sp., vancomycin susceptible; assay: Standard microdilution susceptibility test, clinical isolates; type: cell-based; details: for MIC50 / MIC90: Enterococcus
[28] = test system: Coagulase-negative Staphylococus sp., methicillin susceptible; assay: as above; type: cell-based
[29] = test system: Coagulase-negative Staphylococus sp., methicillin resistant; assay: as above; type: cell-based
[30] = test system: Streptococcus pneumoniae, penicillin susceptible; assay: as above; type: cell-based; details: for MIC50 / MIC90: Streptococcus pneumoniae
[31] = test system: Streptococcus viridans sp.; assay: as above; type: cell-based; details: for MIC50 / MIC90: Streptococcus viridans
[32] = test system: Staphylococcus aureus, methicillin resistant; assay: as above; type: cell-based; details: for MIC50 / MIC90: Staphylococcus aureus
[33] = test system: Streptococcus pneumoniae, penicillin resistant; assay: as above; type: cell-based; details: for MIC50 / MIC90: Streptococcus pneumoniae
[34] = test system: Staphylococcus aureus, methicillin susceptible; assay: as above; type: cell-based; details: for MIC50 / MIC90: Staphylococcus aureus
[35] = test system: E. casseliflavus; assay: Microdilution MIC, Enterococcus isolates with van resistance genes; type: cell-based; details: Enterococcus casseliflavus
Protocol: Identification and characterization of resistance patterns of these bacteria were performed by standard methods.
When forming the test groups we attached great importance to the increasing incidence of drug-resistant microbes causing therapeutic problems. Most important of them are methicillin-resistant Staphylococcus aureus (MRSA), methicillin-resistant coagulase-negative Staphylococcus spp. (MRCoNS), penicillin-resistant Streptococcus pneumoniae (pneumococcus), vancomycin-resistant Enterococcus spp. (VRE). Pneumococcus isolates represented various serotypes, VRE isolates belonged to various species. Moreover, vancomycin-resistance of VRE isolates was based on different genetic backgrounds. Antibiotic-resistant strains were also represented among international reference strains, for example methicillin-resistant Staphylococcus aureus ATCC 43300 (MRSA), Staphylococcus aureus with decreased vancomycin susceptibility ATCC 700698 and 700699 (vancomycin intermediate Staphylococcus aureus—VISA), mupirocin-resistant Staphylococcus aureus ATCC BAA1708 and vancomycin-resistant Enterococcus faecalis ATCC 51299 (VRE).
Susceptibility tests were performed according to the standard microdilution method (NCCLS (CLSI) M7-A7).
The lowest concentration at which no bacterial growth was observed after the incubation period is the Minimal Inhibitory Concentration (MIC). The MIC value is inversely proportional to the antimicrobial efficacy. MIC values of antimicrobial agents can differ by species or even by bacterial strains within species.

[36] = test system: Enterococcus sp., decreased vancomycin susceptibility; assay: Standard microdilution susceptibility test, clinical isolates; type: cell-based; details: 5 clinical isolates
[37] = 20 clinical isolates, read-out: MIC 50%
[38] = 20 clinical isolates, read-out: MIC 90%
[39] = 10 clinical isolates, read-out: MIC 50%
[40] = 10 clinical isolates, read-out: MIC 90%

In the case of `CC1(C)S[C@@H]2[C@H](NC(=O)[C@H](N)c3ccccc3)C(=O)N2[C@H]1C(=O)O` [Ampicillin], the MIC [1] is given as under 0.5 µg/mL, the MIC [2] is given as 7.8 µg/mL (≈ 22.3 µM) and the MIC [3] is given as under 0.5 µg/mL. For the same compound, the MIC [4] was under 0.5 µg/mL, the MIC [5] was under 0.5 µg/mL and the MIC [6] was 7.8 µg/mL (≈ 22.3 µM). The MIC [7] was under 0.5 µg/mL, the MIC [8] was under 0.5 µg/mL and the MIC [9] was under 0.5 µg/mL. For the same compound, the MIC [10] was 7.8 µg/mL (≈ 22.3 µM), the MIC [11] was under 0.5 µg/mL and the MIC [12] was under 0.5 µg/mL. The MIC [13] was 1.0 µg/mL (≈ 2.86 µM), the MIC [14] was 2.0 µg/mL (≈ 5.72 µM) and the MIC [15] was 31.3 µg/mL (≈ 89.6 µM). The MIC [16] was under 0.5 µg/mL, the MIC [17] was 7.8 µg/mL (≈ 22.3 µM) and the MIC [18] was under 0.5 µg/mL. For the same compound, the MIC [19] was 2.0 µg/mL (≈ 5.72 µM), the MIC [20] was under 0.5 µg/mL and the MIC [21] was 31.3 µg/mL (≈ 89.6 µM). For the same compound, the MIC [22] was under 0.5 µg/mL, the MIC [23] was under 0.5 µg/mL and the MIC [24] was 1.0 µg/mL (≈ 2.86 µM). The MIC [25] was under 0.5 µg/mL and the MIC [26] was under 0.5 µg/mL.

In the case of `CC[C@H]1OC(=O)[C@H](C)[C@@H](O[C@H]2C[C@@](C)(OC)[C@@H](O)[C@H](C)O2)[C@H](C)[C@@H](O[C@@H]2O[C@H](C)C[C@H](N(C)C)[C@H]2O)[C@](C)(O)C[C@@H](C)C(=O)[C@H](C)[C@@H](O)[C@]1(C)O` [Erythromycin], the MIC50 [27, 37] is listed as 1 µg/mL (≈ 1.36 µM), the MIC90 [27, 38] is listed as over 16 µg/mL and the MIC [1] is listed as under 0.5 µg/mL. For the same compound, the MIC50 [28, 39] was 0.125 µg/mL (≈ 0.17 µM), the MIC90 [28, 40] was over 16 µg/mL and the MIC [2] was 250 µg/mL (≈ 341 µM). The MIC [3] was under 0.5 µg/mL, the MIC [4] was over 250 µg/mL and the MIC [5] was under 0.5 µg/mL. The MIC [6] was 250 µg/mL (≈ 341 µM), the MIC [7] was 1.0 µg/mL (≈ 1.36 µM) and the MIC50 [29, 39] was 0.25 µg/mL (≈ 0.341 µM). For the same compound, the MIC90 [29, 40] was over 16 µg/mL, the MIC [8] was under 0.5 µg/mL and the MIC [9] was under 0.5 µg/mL. For the same compound, the MIC [10] was 250 µg/mL (≈ 341 µM), the MIC [11] was under 0.5 µg/mL and the MIC [12] was 250 µg/mL (≈ 341 µM). The MIC [13] was under 0.5 µg/mL, the MIC [14] was 62.5 µg/mL (≈ 85.2 µM) and the MIC [15] was over 250 µg/mL. For the same compound, the MIC [16] was over 250 µg/mL, the MIC50 [30, 39] was 0.03 µg/mL (≈ 0.0409 µM) and the MIC90 [30, 40] was 0.03 µg/mL (≈ 0.0409 µM). It also gave an MIC50 [31, 37] of 1 µg/mL (≈ 1.36 µM), an MIC90 [31, 38] of over 16 µg/mL and an MIC50 [32, 39] of over 16 µg/mL. For the same compound, the MIC90 [32, 40] was over 16 µg/mL, the MIC [17] was 250 µg/mL (≈ 341 µM) and the MIC [18] was 1.0 µg/mL (≈ 1.36 µM). The MIC50 [33, 39] was 2 µg/mL (≈ 2.73 µM), the MIC90 [33, 40] was over 16 µg/mL and the MIC [19] was 62.5 µg/mL (≈ 85.2 µM). For the same compound, the MIC [20] was 1.0 µg/mL (≈ 1.36 µM), the MIC [21] was over 250 µg/mL and the MIC [22] was 0.5 µg/mL (≈ 0.681 µM). The MIC [23] was under 0.5 µg/mL, the MIC [24] was under 0.5 µg/mL and the MIC50 [34, 39] was 0.125 µg/mL (≈ 0.17 µM). For the same compound, the MIC90 [34, 40] was over 16 µg/mL, the MIC [25] was 7.8 µg/mL (≈ 10.6 µM) and the MIC [26] was 0.5 µg/mL (≈ 0.681 µM).

In the case of `CN[C@H](CC(C)C)C(=O)N[C@H]1C(=O)N[C@@H](CC(N)=O)C(=O)N[C@H]2C(=O)N[C@H]3C(=O)N[C@H](C(=O)N[C@H](C(=O)O)c4cc(O)cc(O)c4-c4cc3ccc4O)[C@H](O)c3ccc(c(Cl)c3)Oc3cc2cc(c3O[C@@H]2O[C@H](CO)[C@@H](O)[C@H](O)[C@H]2O[C@H]2C[C@](C)(N)[C@H](O)[C@H](C)O2)Oc2ccc(cc2Cl)[C@H]1O` [Vancomycin], the “MIC Range” value ([27]; 20 clinical isolates) is reported as 1 to 4 µg/mL, the “Ratio of Sensitive/Total” value ([27]; 20 clinical isolates) is reported as 20/20 and the MIC50 [27] is reported as 1 µg/mL (≈ 0.69 µM). It also gave an MIC90 [27] of 2 µg/mL (≈ 1.38 µM), an MIC50 [28] of 1 µg/mL (≈ 0.69 µM) and an MIC90 [28] of 2 µg/mL (≈ 1.38 µM). For the same compound, the “MIC Range” value ([28]; 10 clinical isolates) was 1 to 2 µg/mL, the “Ratio of Sensitive/Total” value ([28]; 10 clinical isolates) was 10/10 and the MIC50 [29] was 2 µg/mL (≈ 1.38 µM). The MIC90 [29] was 2 µg/mL (≈ 1.38 µM), the “MIC Range” value ([29]; 10 clinical isolates) was 1 to 2 µg/mL and the “Ratio of Sensitive/Total” value ([29]; 10 clinical isolates) was 10/10. For the same compound, the “MIC Range” value ([30]; 10 clinical isolates) was 0.25 to 0.5 µg/mL, the “Ratio of Sensitive/Total” value ([30]; 10 clinical isolates) was 10/10 and the MIC50 [30] was 0.5 µg/mL (≈ 0.345 µM). For the same compound, the MIC90 [30] was 0.5 µg/mL (≈ 0.345 µM), the “MIC Range” value ([31]; 20 clinical isolates) was 0.5 to 1 µg/mL and the “Ratio of Sensitive/Total” value ([31]; 20 clinical isolates) was 10/20. For the same compound, the MIC50 [31] was 0.5 µg/mL (≈ 0.345 µM), the MIC90 [31] was 1 µg/mL (≈ 0.69 µM) and the “MIC Range” value ([32]; 10 clinical isolates) was 0.5 to 1 µg/mL. For the same compound, the “Ratio of Sensitive/Total” value ([32]; 10 clinical isolates) was 10/10, the MIC50 [32] was 1 µg/mL (≈ 0.69 µM) and the MIC90 [32] was 1 µg/mL (≈ 0.69 µM). The MIC ([35]; resistance gene van C1) was 16 µg/mL (≈ 11 µM), the MIC ([35]; resistance gene van C2) was 8 µg/mL (≈ 5.52 µM) and the “MIC Range” value ([33]; 10 clinical isolates) was 0.25 to 0.5 µg/mL. For the same compound, the “Ratio of Sensitive/Total” value ([33]; 10 clinical isolates) was 10/10, the MIC50 [33] was 0.5 µg/mL (≈ 0.345 µM) and the MIC90 [33] was 0.5 µg/mL (≈ 0.345 µM). The “Ratio of Sensitive/Total” value [36] was 0/5, the “MIC Range” value ([34]; 10 clinical isolates) was 0.5 to 2 µg/mL and the “Ratio of Sensitive/Total” value ([34]; 10 clinical isolates) was 10/10. For the same compound, the MIC50 [34] was 1 µg/mL (≈ 0.69 µM) and the MIC90 [34] was 1 µg/mL (≈ 0.69 µM).
